Source: publication PMC7083851, “Extended pharmacodynamic responses observed upon PROTAC-mediated degradation of RIPK2” (Communications Biology, 2020)
Values joined by “and” are separate entries in the source; they are usually repeats but may differ in a detail not shown here. Equal entries are not always repeated.

What was measured:
[1] = test system: spontaneous IL-1β, IL-6, and TNFα release; assay: Spontaneous cytokine release (IL-1β, IL-6, TNFα) from Crohn's disease patient intestinal biopsies; type: cell-based, human; details: prednisolone 1uM; individual biopsies; fig 4e
Method: (§1) Colonic biopsies or tissues were obtained during endoscopy or via surgical resection from Crohn’s Disease (CD) or Ulcerative Colitis (UC) patients (St Bartholomew’s Hospital, London). All patients gave informed written consent. For surgical specimens, the mucosa was dissected away from the submucosa and cut into pieces of ~10–20 mg. […] The supernatants were collected for cytokine measurement as detailed in cytokines assay section while tissues were used to determine RIPK2 levels.
(§2) Cytokine measurement assay: Cytokine levels were measured in rat plasma or rat PBMCs cell culture supernatants using rat V-Plex TNFα, in human plasma or human PBMCs cell culture supernatants with either TNFα tissue culture or 7-plex kit. Rat serum and tissues samples from the in vivo L18-MDP acute inflammation model were analyzed using the rat TNFα, Il-6 and IL-8 U-Plex kits. All kits provided by Meso Scale Discovery (MSD). Levels of cytokines spontaneously released from human colon biopsies cell culture supernatants were measured using Human IL-1 beta/IL-1F2 DuoSet ELISA (Bio-techne), Human IL-6 ELISA (Immunotools) and Human TNF-alpha DuoSet ELISA (Bio-techne). All samples were processed accordingly to the manufacturer’s instructions. The MSD plates were analyzed using the MSD sector imager 6000 plate reader and cytokines concentration (pg/ml) was obtained by using the MSD DISCOVERY WORKBENCH software version 4.0.12.1

[2] = test system: spontaneous IL-1β, IL-6, and TNFα release; assay: Spontaneous cytokine release (IL-1β, IL-6, TNFα) from ulcerative colitis patient intestinal biopsies; type: cell-based, human; details: prednisolone 1uM; individual biopsies; fig 4f
Method: as §1, §2

RIPK2 [3] = target: T1, RIPK2 (Homo sapiens, UniProt O43353); assay: RIPK2 degradation in THP-1 cells, capillary-based immunoassay, 18 h; type: cell-based; design: endogenous in cells; host or cells: THP-1 (ATCC TIB-202); details: for RIPK2 level relative to DMSO control, mean / RIPK2 level relative to DMSO control, replicate: THP-1, 18 h; for pDC50 (log half-maximal degradation concentration) of RIPK2: THP-1 cells, 18 h, n = 3
T1 sequence (O43353 whole entry): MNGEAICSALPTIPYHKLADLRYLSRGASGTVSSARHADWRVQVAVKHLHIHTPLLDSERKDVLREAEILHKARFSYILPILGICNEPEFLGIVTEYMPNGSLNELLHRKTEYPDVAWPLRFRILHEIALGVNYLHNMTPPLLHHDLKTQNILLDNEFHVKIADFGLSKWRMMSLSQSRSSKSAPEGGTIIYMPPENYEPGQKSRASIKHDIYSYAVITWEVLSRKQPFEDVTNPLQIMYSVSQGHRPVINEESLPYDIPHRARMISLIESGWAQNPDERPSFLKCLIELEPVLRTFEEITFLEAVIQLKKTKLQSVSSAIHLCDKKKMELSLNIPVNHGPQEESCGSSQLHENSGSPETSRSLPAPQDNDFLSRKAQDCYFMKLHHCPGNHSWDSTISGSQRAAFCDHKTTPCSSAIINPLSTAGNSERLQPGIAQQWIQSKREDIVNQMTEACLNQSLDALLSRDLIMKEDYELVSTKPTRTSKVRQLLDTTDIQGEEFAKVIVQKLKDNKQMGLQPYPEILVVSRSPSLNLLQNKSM
Method: The compounds were incubated with THP-1 cells for 18 h after which RIPK2 levels were determined using a capillary-based immunoassay (n = 3). All three PROTACs potently degraded RIPK2 in a concentration dependent manner (Fig. 1). […]. This discrepancy between the in vitro RIPK2 degradation and binding potency provides possible evidence for a catalytic mechanism of action of this compound.
(§3) Before treatment with compound or vehicle, THP1 cells, human and rat PBMCs were counted using Vi-Cell cell counter (Invitrogen) and adjusted to a final cell density of […] using complete growth medium. Cells or whole blood were treated with vehicle (0.1% DMSO) or fixed concentrations of compound up to 1 μM in half log unit increments and incubated for the time period indicated in the figure.
(§4) Simple Western immunoassay: Cell lysates were mixed with 5× concentrated master mix (Protein Simple) and denatured at 95 °C on a heat block for 5 min together with the provided ladder (Protein Simple). Antibodies were diluted in the provided buffer as following: anti-RIPK2 (1:10 or 1:50), anti-cIAP1(1:10), anti-cIAP2 (1:10), anti-XIAP (1:10), mouse anti-β-actin (Abcam - 1:1000), rabbit anti-β-actin (Abcam - 1:50) and anti-vinculin (1:100). All reagents (blocking buffer, primary and secondary antibodies, streptavadin, luminol/peroxide, separation matrix, stacking matrix and water) were added to the Protein Simple plate containing the ladder and lysates and the plate was placed in a Protein Simple Western instrument and the Simple Western default size assay protocol was used. All samples were analyzed using the associated Compass software 3.1.7. The area under the peak values obtained for RIPK2, cIAP1, cIAP2 or XIAP were normalized relative to the control protein values.
(§5) In vitro experimental data were analyzed using a 4-parameter logistic equation in GraphPad Prism 5.0.4. to generate an estimate of the half-maximal concentration and maximal degradation, DC50 and Dmax value respectively, for concentration-degradation relationships. Cytokine levels were analyzed in a similar manner to yield IC50 and Imax values. […] Where analysis to a sigmoidal relationship was not possible, the data points are shown as mean ± s.e.m.

RIPK2 [4] = target: T1, RIPK2; assay: RIPK2 fluorescence polarisation binding assay
[5] = test system: L18-MDP-induced TNFα release; assay: L18-MDP-induced cytokine release (TNFα, IL1β, IL-6, IL-8, IL-10) in human PBMCs; type: cell-based; details: human PBMCs
Method: (§6) PBMCs were isolated from leukodepletion filter from platelet aphaeresis supplied by National Health System Blood and Transplant—NHSBT Apheresed at NHBST.
as §3
(§7) Where the assessment of cytokines was performed, L18-MDP was added to the cell culture media (1 μg/ml) or to the rat blood samples (100 ng/ml) and samples were incubated for up to 4 h. […] Samples were them spun down at 1000 g and the cell culture supernatant, plasma or serum were collected for cytokines assessment, while cell pellets were used for RIPK2 and/or cIAP1, cIAP2, and XIAP levels analysis via immunoblotting.
as §2, §5

RIPK2 [6] = target: T1, RIPK2; assay: RIPK2 degradation in human PBMCs (immunoassay); type: cell-based; design: endogenous in cells; host or cells: primary human PBMCs from leukodepletion filters (NHSBT)
Method: as §6, §3, §7
as §4, with “All samples were analyzed using the associated Compass software 3.1.7.” left out
as §5

SMILES	RIPK2 level relative to DMSO control, mean (RIPK2 [3]; concentration 5.64503e-11 (uM)) [%]	RIPK2 level relative to DMSO control, replicate (RIPK2 [3]; concentration 5.64503e-11 (uM))	RIPK2 level relative to DMSO control, mean (RIPK2 [3]; concentration 1.69351e-10 (uM)) [%]	RIPK2 level relative to DMSO control, replicate (RIPK2 [3]; concentration 1.69351e-10 (uM))	RIPK2 level relative to DMSO control, mean (RIPK2 [3]; concentration 5.08053e-10 (uM)) [%]	RIPK2 level relative to DMSO control, replicate (RIPK2 [3]; concentration 5.08053e-10 (uM))	RIPK2 level relative to DMSO control, mean (RIPK2 [3]; concentration 1.52416e-9 (uM)) [%]	RIPK2 level relative to DMSO control, replicate (RIPK2 [3]; concentration 1.52416e-9 (uM))	RIPK2 level relative to DMSO control, mean (RIPK2 [3]; concentration 4.57247e-9 (uM)) [%]	RIPK2 level relative to DMSO control, replicate (RIPK2 [3]; concentration 4.57247e-9 (uM))	RIPK2 level relative to DMSO control, mean (RIPK2 [3]; concentration 1.37174e-8 (uM)) [%]	RIPK2 level relative to DMSO control, replicate (RIPK2 [3]; concentration 1.37174e-8 (uM))	RIPK2 level relative to DMSO control, mean (RIPK2 [3]; concentration 4.11523e-8 (uM)) [%]	RIPK2 level relative to DMSO control, replicate (RIPK2 [3]; concentration 4.11523e-8 (uM))	RIPK2 level relative to DMSO control, mean (RIPK2 [3]; concentration 1.23457e-7 (uM)) [%]	RIPK2 level relative to DMSO control, replicate (RIPK2 [3]; concentration 1.23457e-7 (uM))	RIPK2 level relative to DMSO control, mean (RIPK2 [3]; concentration 3.7037e-7 (uM)) [%]	RIPK2 level relative to DMSO control, replicate (RIPK2 [3]; concentration 3.7037e-7 (uM))	RIPK2 level relative to DMSO control, mean (RIPK2 [3]; concentration 1.11111e-6 (uM)) [%]	RIPK2 level relative to DMSO control, replicate (RIPK2 [3]; concentration 1.11111e-6 (uM))	further results
C[C@]12C=CC(=O)C=C1CC[C@@H]1[C@@H]2[C@@H](O)C[C@@]2(C)[C@H]1CC[C@]2(O)C(=O)CO [prednisolone, reference compound]	–	–	–	–	–	–	–	–	–	–	–	–	–	–	–	–	–	–	–	–	IL-1b (Ctrl=DMSO = 100) [1]: 18 and 20 and 82 and 15 and 48 and 13 and 5 (2×) and 35 and 37 and 12 and 6 and 49 and 17; IL-6 (Ctrl=DMSO = 100) [1]: 26 (2×) and 27 and 10 and 1 and 8 and 46 and 63 and 31 and 7 and 42 and 40 and 90 and 50 and 9; TNFa (Ctrl=DMSO = 100) [1]: 29 and 15 and 42 and 28 and 19 and 0 and 13 and 33 and 46 (2×) and 27 and 26 and 38 and 23 and 66; IL-1b (Ctrl=DMSO = 100) [2]: 65 and 41 and 10 and 46 and 7 (2×) and 49 and 30 and 14 and 33 and 36 and 5 and 17 and 39 and 19 (2×) and 13 and 34 and 28; IL-6 (Ctrl=DMSO = 100) [2]: 58 and 14 and 16 and 25 and 18 and 9 and 12 and 5 (2×) and 74 and 26 and 34 and 28 and 19 and 3 and 21 and 17 and 48 and 24; TNFa (Ctrl=DMSO = 100) [2]: 36 and 19 and 40 and 48 and 18 (2×) and 56 and 8 and 33 and 55 and 69 and 27 and 38 (2×) and 20 and 25 and 35 and 14 and 39
CC(C)(C)S(=O)(=O)c1cc2c(Nc3ccc4scnc4c3)ccnc2cc1OCCOCCOCCOCCOCC(=O)Nc1cccc2c1CN([C@H]1CCC(=O)NC1=O)C2=O [PROTAC 3]	146.59	194.68% and 98.50%	122.55	71.16% and 101.63% and 194.85%	97.79	93.88% and 82.74% and 116.75%	112.46	101.29% and 70.25% and 165.85%	60.56	92.51% and 28.00% and 61.18%	42.80	81.76% and 12.71% and 33.93%	29.73	51.94% and 1.28% and 35.96%	21.93	35.50% and 5.30% and 24.99%	20.89	34.52% and 2.06% and 26.09%	14.85	24.75% and 3.56% and 16.23%	RIPK2 level relative to DMSO control, mean (RIPK2 [3]; concentration 3.33333e-6 (uM)): 15.39%; RIPK2 level relative to DMSO control, replicate (RIPK2 [3]; concentration 3.33333e-6 (uM)): 20.92% and 6.74% and 18.51%; RIPK2 level relative to DMSO control, mean (RIPK2 [3]; concentration 1e-5 (uM)): 22.12%; RIPK2 level relative to DMSO control, replicate (RIPK2 [3]; concentration 1e-5 (uM)): 28.44% and 5.50% and 32.40%; pDC50 (log half-maximal degradation concentration) of RIPK2 (RIPK2 [3]): 8.6 ± 0.4
CN[C@H](C)C(=O)N[C@@H](C(=O)N1CCC[C@@H]1c1nc(C(=O)c2ccc(F)cc2)cs1)C1CCN(C(=O)c2cnc(N3CCN(CCOc4cc5ncnc(Nc6n[nH]c(C)c6C)c5cc4S(=O)(=O)C(C)(C)C)CC3)nc2)CC1 [PROTAC 5]	–	–	–	–	–	–	–	–	–	–	–	–	–	–	–	–	–	–	–	–	RIPK2 FP pIC50 ± SEM (n) (RIPK2 [4]): 6.7 ± 0.05 (12); hPBMC MDP pIC50 ± SEM, 6 h (n = 3) ([5]; L18-MDP-induced TNFα release, 6 h): 6.5 ± 0.5; fold reduced potency in L18-MDP-induced TNFα release versus the active PROTAC ([5]; control PROTAC vs its enantiomer): more than 10 fold; RIPK2 degradation in human PBMCs, in words (RIPK2 [6]): does not degrade RIPK2; hPBMC pDC50 ± SEM, 24 h (n = 3) (RIPK2 [6]; RIPK2 degradation, 24 h): Non-degrader
Cc1ncsc1-c1ccc(CNC(=O)[C@@H]2C[C@@H](O)CN2C(=O)[C@@H](NC(=O)COCCOCCOCCOCCOc2cc3nccc(Nc4ccc5scnc5c4)c3cc2S(=O)(=O)C(C)(C)C)C(C)(C)C)cc1 [PROTAC 1]	137.19	137.14% and 131.67% and 142.75%	152.51	155.57% and 149.03% and 152.92%	122.01	106.27% and 143.87% and 115.89%	89.18	63.87% and 96.25% and 107.40%	27.32	23.09% and 35.58% and 23.29%	9.76	12.67% and 5.77% and 10.83%	6.61	11.20% and 7.66% and 0.96%	5.05	9.24% and 2.76% and 3.15%	6.31	7.12% and 6.30% and 5.51%	33.78	1.60% and 12.61% and 87.13%	RIPK2 level relative to DMSO control, mean (RIPK2 [3]; concentration 3.33333e-6 (uM)): 14.14%; RIPK2 level relative to DMSO control, replicate (RIPK2 [3]; concentration 3.33333e-6 (uM)): 1.88% and 3.30% and 37.22%; RIPK2 level relative to DMSO control, mean (RIPK2 [3]; concentration 1e-5 (uM)): 11.28%; RIPK2 level relative to DMSO control, replicate (RIPK2 [3]; concentration 1e-5 (uM)): 13.04% and 4.22% and 16.59%; pDC50 (log half-maximal degradation concentration) of RIPK2 (RIPK2 [3]): 8.7 ± 0.1
